Results taken from the supplement of paper PMC11919725.

Columns and labels:
Jurkat [1] = assay: metabolic activity relative to DMSO, 18 h (ratio); higher = more viable
Method in brief: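 Naive or CD3/CD28 Dynabead-activated (48 h) primary CD4+/CD8+ T cells, or Jurkat cells, received compound at 1 nM–10 µM for 18 h. Readout used alamarBlue at 10% v/v final, with fluorescence taken after 3.5 h. Metabolic activity is given relative to mean vehicle control values.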

Jurkat [2] = assay: confluency relative to DMSO, 18 h (ratio); higher = more viable
Method in brief: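 Naive or CD3/CD28 Dynabead-activated (48 h) primary CD4+/CD8+ T cells, or Jurkat cells, received compound at 1 nM–10 µM for 18 h at 37 °C. Confluency was measured by IncuCyte phase-contrast imaging with the Basic Analyzer and normalised to the mean of the control wells. Imaging used 100 µl of suspension per well in 96-well plates with IncuCyte Cytotox Dye and alamarBlue, at ×10 with five images per well every hour for 3 h.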

Jurkat [3] = assay: cytotoxicity relative to DMSO, 18 h (ratio); higher = less cell death (drugs called cytotoxic fall below 1)
Method in brief: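 Cytotoxicity was measured by IncuCyte fluorescence imaging after confluency correction and normalisation to mean control values. Cells (Jurkat, or primary CD4+/CD8+ T cells that were naive or pre-activated 48 h with CD3/CD28 Dynabeads) received compound at 1 nM–10 µM in log10 steps for 18 h at 37 °C, 5% CO2. Imaging used ×10 magnification, five images per well, taken hourly over 3 h in 96-well plates with 250 nM final IncuCyte Cytotox Dye in 100 µl of suspension.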

Compound | metabolic activity (Jurkat [1]; 1 nM) | metabolic activity (Jurkat [1]; 10 nM) | metabolic activity (Jurkat [1]; 100 nM) | metabolic activity (Jurkat [1]; 1000 nM) | metabolic activity (Jurkat [1]; 10000 nM) | confluency (Jurkat [2]; 1 nM) | confluency (Jurkat [2]; 10 nM) | confluency (Jurkat [2]; 100 nM) | confluency (Jurkat [2]; 1000 nM) | confluency (Jurkat [2]; 10000 nM) | cytotoxicity (Jurkat [3]; 1 nM) | cytotoxicity (Jurkat [3]; 10 nM) | cytotoxicity (Jurkat [3]; 100 nM) | cytotoxicity (Jurkat [3]; 1000 nM) | cytotoxicity (Jurkat [3]; 10000 nM)
COc1cccc2c1C(=O)c1c(O)c3c(c(O)c1C2=O)CC(O)(C(=O)CO)CC3OC1CC(N)C(O)C(C)O1 (stereo not given) [Doxorubicin] | 1.09 | 0.901 | 0.89 | 0.823 | 0.342 | 1.04 | 0.98 | 0.995 | 0.993 | 1.07 | 1.05 | 0.983 | 0.967 | 0.871 | 0.618
Nc1ccccc1NC(=O)c1ccc(CNC(=O)OCc2cccnc2)cc1 [Entinostat] | 0.904 | 0.811 | 0.957 | 0.923 | 0.727 | 1.04 | 0.967 | 0.939 | 0.906 | 0.947 | 1.09 | 0.937 | 0.912 | 0.891 | 1.01
COC1CC2CCC(C)C(O)(O2)C(=O)C(=O)N2CCCCC2C(=O)OC(C(C)CC2CCC(OCCO)C(OC)C2)CC(=O)C(C)C=C(C)C(O)C(OC)C(=O)C(C)CC(C)C=CC=CC=C1C (stereo not given) [Everolimus] | 0.773 | 0.935 | 0.975 | 0.958 | 0.981 | 0.88 | 0.877 | 0.969 | 1.06 | 0.906 | 0.853 | 0.843 | 0.947 | 0.996 | 0.893
COc1ccc(-c2nc(N3CCOCC3)c3sc(CN(C)c4ncc(C(=O)NO)cn4)cc3n2)cn1 [Fimepinostat] | 0.731 | 0.914 | 0.796 | 0.772 | 0.42 | 0.995 | 1.12 | 1.2 | 1.31 | 1.23 | 0.792 | 1.09 | 1.05 | 1.12 | 0.892
COc1cc(Nc2ncc(F)c(Nc3ccc4c(n3)N(COP(=O)(O)O)C(=O)C(C)(C)O4)n2)cc(OC)c1OC [Fostamatinib] | 1.21 | 1.23 | 1.1 | 1.01 | 0.925 | 1 | 0.995 | 0.961 | 0.911 | 0.821 | 1.06 | 1.05 | 0.951 | 0.893 | 0.783
CCNC(=O)Nc1ccc(-c2nc3c(c(N4CCOCC4C)n2)CCN(C2COC2)C3)cc1 (stereo not given) [GDC-0349] | 0.925 | 0.919 | 0.886 | 0.841 | 0.798 | 0.992 | 0.981 | 0.955 | 0.932 | 0.873 | 0.991 | 0.972 | 0.947 | 0.887 | 0.78
COC1=C2CC(C)CC(OC)C(O)C(C)C=C(C)C(OC(N)=O)C(OC)C=CC=C(C)C(=O)NC(=CC1=O)C2=O (stereo not given) [Geldanamycin] | 0.985 | 0.95 | 0.767 | 0.567 | 0.7 | 0.963 | 1.02 | 0.786 | 0.971 | 0.975 | 0.946 | 0.982 | 0.745 | 0.815 | 0.798
Nc1ccn(C2OC(CO)C(O)C2(F)F)c(=O)n1 (stereo not given) [Gemcitabine] | 1 | 1.07 | 0.61 | 0.712 | 0.724 | 0.916 | 0.993 | 1.04 | 0.732 | 0.69 | 0.927 | 1.01 | 0.921 | 0.651 | 0.602
CCN(CC)Cc1ccc2cc(COC(=O)Nc3ccc(C(=O)NO)cc3)ccc2c1 [Givinostat] | 0.902 | 0.981 | 0.969 | 0.845 | 0.762 | 1.05 | 0.98 | 1.05 | 1.18 | 1.2 | 1.15 | 1.01 | 1.06 | 1.03 | 1.04
COc1ccc(S(=O)(=O)N(C(C)=O)c2ccccc2C=Cc2cc[n+]([O-])cc2)cc1 [HMN-214] | 1.11 | 0.973 | 0.813 | 0.779 | 0.503 | 0.983 | 0.99 | 0.993 | 0.979 | 0.694 | 1.11 | 0.94 | 0.954 | 0.982 | 0.602
NC1CCC(NC2CC2c2ccccc2)CC1 (stereo not given) [Iadademstat] | 0.93 | 0.857 | 0.737 | 1.09 | 0.95 | 1.01 | 0.967 | 1.02 | 1.03 | 1.05 | 0.988 | 0.933 | 0.928 | 1.14 | 1.15
O=C1CCC(N2Cc3c(OCc4ccc(CN5CCOCC5)cc4)cccc3C2=O)C(=O)N1 (stereo not given) [Iberdomide] | 0.987 | 0.949 | 1.02 | 1.11 | 1.21 | 0.898 | 0.805 | 0.811 | 0.8 | 0.823 | 0.885 | 0.749 | 0.877 | 0.796 | 0.865
